Measured values reported in article PMC5382265, “Macrocycle peptides delineate locked-open inhibition mechanism for microorganism phosphoglycerate mutases” (Nature Communications, 2017).
Read-outs that look alike come from different tables or passages of the source.

Legend:
E. coli iPGM [1] = target: T1, E. coli iPGM (Escherichia coli, UniProt P37689); test: biochemical
E. coli iPGM [2] = target: T1, E. coli iPGM; test: biochemical; remark: listed apart in the source
C. elegans iPGM = target: T2, C. elegans iPGM (Caenorhabditis elegans, UniProt G5EFZ1); test: PGM enzyme-coupled bioluminescent end point assay (Kinase-Glo Plus); assay type: biochemical
T2 sequence (G5EFZ1 1-539): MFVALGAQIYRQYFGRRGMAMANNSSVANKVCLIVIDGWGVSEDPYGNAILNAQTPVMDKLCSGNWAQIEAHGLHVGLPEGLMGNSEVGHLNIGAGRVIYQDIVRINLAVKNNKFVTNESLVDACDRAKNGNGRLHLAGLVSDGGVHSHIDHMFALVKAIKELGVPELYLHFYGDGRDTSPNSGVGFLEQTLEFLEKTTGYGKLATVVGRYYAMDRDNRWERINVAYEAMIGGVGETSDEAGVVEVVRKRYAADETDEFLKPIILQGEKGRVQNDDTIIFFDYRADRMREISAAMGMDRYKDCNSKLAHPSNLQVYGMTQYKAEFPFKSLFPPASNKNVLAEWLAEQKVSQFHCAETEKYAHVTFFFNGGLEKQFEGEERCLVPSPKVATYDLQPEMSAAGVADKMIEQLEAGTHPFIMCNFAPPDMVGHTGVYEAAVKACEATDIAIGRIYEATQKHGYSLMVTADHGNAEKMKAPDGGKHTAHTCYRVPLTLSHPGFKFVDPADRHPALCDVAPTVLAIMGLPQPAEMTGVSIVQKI

H. sapiens dPGM = H. sapiens dPGM (Homo sapiens, UniProt P18669); test: Gradient elution moving boundary electrophoresis (GEMBE) assay; assay type: biochemical; conditions: 2.1 nM H. sapiens dPGM
Chain of H. sapiens dPGM (P18669 whole entry): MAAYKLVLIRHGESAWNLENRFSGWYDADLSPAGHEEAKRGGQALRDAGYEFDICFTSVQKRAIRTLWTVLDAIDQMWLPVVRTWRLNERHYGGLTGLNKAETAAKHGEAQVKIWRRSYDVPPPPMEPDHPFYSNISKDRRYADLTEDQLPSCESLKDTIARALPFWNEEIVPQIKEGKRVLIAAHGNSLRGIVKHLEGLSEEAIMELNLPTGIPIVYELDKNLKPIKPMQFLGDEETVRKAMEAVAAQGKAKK

[3] = target: E. coli cofactor-independent phosphoglycerate mutase (iPGM) (E. coli) (UniProt P37689)
Chain of E. coli cofactor-independent phosphoglycerate mutase (iPGM) (E. coli) (P37689 whole entry): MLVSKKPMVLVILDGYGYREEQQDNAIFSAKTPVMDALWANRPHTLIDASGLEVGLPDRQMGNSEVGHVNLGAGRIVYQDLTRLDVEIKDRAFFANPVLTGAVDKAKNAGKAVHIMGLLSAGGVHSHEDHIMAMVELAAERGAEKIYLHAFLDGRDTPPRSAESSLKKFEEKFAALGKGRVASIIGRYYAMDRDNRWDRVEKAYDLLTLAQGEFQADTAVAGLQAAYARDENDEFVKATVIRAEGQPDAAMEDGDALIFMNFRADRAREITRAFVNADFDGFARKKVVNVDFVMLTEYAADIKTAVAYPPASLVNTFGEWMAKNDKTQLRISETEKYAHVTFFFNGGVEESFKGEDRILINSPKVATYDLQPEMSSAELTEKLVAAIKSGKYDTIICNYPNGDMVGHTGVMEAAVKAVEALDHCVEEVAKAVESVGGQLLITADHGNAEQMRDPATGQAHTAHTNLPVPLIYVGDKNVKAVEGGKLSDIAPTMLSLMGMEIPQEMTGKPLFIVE

T1 sequence (P37689 whole entry, looked up): as the sequence (P37689 whole entry) above

| Compound | IC50 (E. coli iPGM [1]) [nM] | IC50 (E. coli iPGM [2]; pIC50, apparent E. coli iPGM) [nM] | IC50 (E. coli iPGM [2]; pIC50 E. coli iPGM) [nM] | IC50 (C. elegans iPGM; pIC50, apparent C. elegans iPGM) [nM] | IC50 (C. elegans iPGM; pIC50 C. elegans iPGM) [nM] | pIC50 from the GEMBE assay (H. sapiens dPGM) | IC50 of inhibition of PGM activity, enzyme-coupled bioluminescent assay [3] [nM] |
| --- | --- | --- | --- | --- | --- | --- | --- |
| CC(C)C[C@H](NC(=O)[C@H](Cc1ccc(O)cc1)NC(=O)[C@@H]1CSCC(=O)N[C@H](Cc2ccc(O)cc2)C(=O)N[C@@H](CC(=O)O)C(=O)N[C@@H](Cc2ccc(O)cc2)C(=O)N2CCC[C@H]2C(=O)NCC(=O)N[C@@H](CC(=O)O)C(=O)N[C@@H](Cc2ccc(O)cc2)C(=O)N1)C(=O)N[C@@H](Cc1ccc(O)cc1)C(=O)NCC(=O)N[C@H](C(=O)N[C@@H](CS)C(=O)NCC(N)=O)[C@@H](C)O [Ce-2] | 3.24 | 1.66 | 0.55 | 2.24 | 0.251 | no apparent activity |  |
| Ce-2S (Ce-2 with Cys14Ser) (peptide) |  |  |  |  |  |  | 10 |
